From publication PMC9276943 (Molecular Plant Pathology, 2022)

Target: T1, truncated CsrD, EAL domain only (E. amylovora Ea1189) (Erwinia amylovora, UniProt A0ABX7MI01)
T1 sequence (A0ABX7MI01 403-633): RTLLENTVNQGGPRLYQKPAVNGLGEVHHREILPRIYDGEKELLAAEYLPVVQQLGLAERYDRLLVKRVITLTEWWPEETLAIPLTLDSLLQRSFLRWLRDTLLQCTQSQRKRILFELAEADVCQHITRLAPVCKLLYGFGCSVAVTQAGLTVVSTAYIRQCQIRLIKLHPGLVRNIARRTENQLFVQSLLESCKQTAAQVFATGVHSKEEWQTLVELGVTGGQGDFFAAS
Experiment: streptavidin pull-down with anti-His immunoblot
Format: binding
Conditions: labelled compound (biotinylated c-di-GMP, 100 µM); 1.7 µM protein

Question: For `Nc1nc2c(ncn2[C@@H]2O[C@@H]3COP(=O)(O)O[C@H]4[C@@H](O)[C@H](n5cnc6c(=O)[nH]c(N)nc65)O[C@@H]4COP(=O)(O)O[C@H]3[C@H]2O)c(=O)[nH]1` [c-di-GMP], which “streptavidin pull-down with anti-His immunoblot” value is on record?
Answer: truncated version of CsrD that consisted of only the WT EAL domain exhibited binding
